How the values were obtained:
[1] = test system: chondrocytes from the sternum of chicken embryos; assay: Dedifferentiation of chicken embryo chondrocytes in two-dimensional culture on plastic (fluorography of 14C-proline labelled collagens, morphology); format: cell-based
Excerpt: a) The experimental chondrocyte culture model is the one with the culture of chicken embryo chondrocytes on plastic in two dimensions. The embryonic state of the cells allows a high level of synthesis of the collagens, unlike the adult chondrocytes. The chicken sternum from which the chondrocytes originates Makes it possible to obtain two pure sub-populations of chondrocytes capable or not capable of subsequently hypertrophying (respectively, the chondrocytes of the cranial or caudal section of the sternum). […] The results which are described always distinguish the sub-population of the chondrocytes studied.
The cultures with 4 mM L-glutamine antibiotics, and 25 μg/ml ascorbate (factor necessary for the stability of the secreted collagen triple helix units) are continued for 2 weeks in the presence or absence of 10% serum, optionally replaced by 100 ng/ml insulin, and by 50 μg/ml βAPN. The absence of serum necessitates the addition of protective agents (1 mM cysteine and 1 mM pyruvate). A day before taking the samples, 10 μCi of 14C Proline is added to the cultures the lawns or media of which are then pepsinated (0.2 mg pepsin/ml/pH 4/24 hours) and subjected to electrophoretic (SDS PAGE gradient of 4.5 at 15% acrylamide) then fluorographic analysis. The fluorographs then reveal the only pepsin-resistant protein bands, essentially the collagens and lipocalines (proteins with lipid transport). The known position of these bands allows the indication of the dedifferentiation of the cells by the appearance of the α2 I chain of collagen I associated with the lowering of the synthesis of the collagens of cartilage type.
βAPN (50 μg/ml) is added immediately upon inoculation, to the culture medium which is renewed every 2 days and applied to the cultures of chondrocytes as well as to those of fibroblasts then of keratinocytes during the formation of the reconstructed skin. […]

[2] = test system: chondrocytes, fibroblasts, keratinocytes; assay: Toxicity and multiplication of the cells in culture at the standard concentration; format: cell-based; conditions: 50 μg/ml
Experimental: (§1) βAPN (50 μg/ml) is added immediately upon inoculation, to the culture medium which is renewed every 2 days and applied to the cultures of chondrocytes as well as to those of fibroblasts then of keratinocytes during the formation of the reconstructed skin.

[3] = test system: fibroblasts; assay: Fibroblasts cultured in monolayer: cell count and MTT viability test; format: cell-based, human
Excerpt: (§2) The support of the reconstructed skin model is constituted by a dermal substrate (DS) with a base of collagen-glycosaminoglycan cross-linked by chitosan according to the technique published by Duplan-Perrat et al (J Invest Dermatol 2000 114:365). Fibroblasts are inoculated the inside of the DS in order to obtain an equivalent dermis. The reconstituted skin (RS) is obtained by inoculating the keratinocytes after 15 days (day 15) of culture in equivalent dermis. The dermal fibroblasts are obtained from explants of human prepuces after dermal-epidermal separation and cultured in monolayer in DMEM medium (Sigma) supplemented by 10% fœtal calf serum, 4 mM L-glutamine, EGF (Austral Biologic) at 10 ng/ml, penicillin at 100 UI/ml, gentamicin at 100 μg/ml and amphotericin B at 1 μg/ml. The keratinocytes are from a human skin biopsy sample after dermal-epidermal separation by trypsination. The cells are inoculated nutritive layers (irradiated fibroblasts) and cultured in DMEM and HAM F12 at 30% supplemented with fœetal calf serum at 10%, EGF at 10 ng/ml, hydrocortisone at 1.6 ng/ml, umulin at 0.12 UI/ml, choleratoxin at 0.1 nM, triiodothyronine at 0.2 μM, adenine at 24 μg/ml, 4 mM L-Glutamine, penicillin at 100 UI/ml, gentamicin at 100 μg/ml and amphotericin B at 1 μg/ml.
In fact, the number of these cells is reduced by approximately 50% compared to the control when they are cultured in the presence of 600 μg/ml of βAPN. […] The results of the MTT viability test confirm those of the cell count. […] It must be emphasized that βAPN at 200 μg/ml can optionally cause an increase in cell activity (proliferation and viability) on the fibroblasts inoculated at a low density, and on the fibroblasts and the keratinocytes inoculated at a high density.

[4] = test system: reconstructed skin (fibroblasts and keratinocytes); assay: Retraction (surface area) of reconstructed skins; format: cell-based, human; conditions: for surface area compared to the initial original surface area: 35 days of culture
Excerpt: (§3) The method allowing the formation of the reconstructed skin is that described in the French Patent 87-08252 of the 15th Jun. 1987.
as §2
A mixture with a base of bovine collagen of type I and III (72%), glycosaminoglycan (8%) cross-linked by chitosan (20%) is poured into 6-well plates. The dermal substrates thus obtained are then frozen at −80° C. and lyophilized. The fibroblasts are inoculated in the dermal substrate, rehydrated and sterilized at a rate of 250,000 cells per cm^2. Keratinocytes are inoculated after 15 days (day 15) at a density of 200,000 to 250,000 cells/cm^2. The reconstructed skins are cultured for 8 days in immersion, in the medium described previously supplemented with 50 μg/ml of vitamin C. Then the reconstructed skins are raised to the air-liquid interface using a simplified culture medium with a DMEM base, supplemented with fœtal calf serum, EGF, hydrocortisone, umulin, L-glutamine, penicillin, gentamicin, and amphotericin B, and ascorbic acid, at the concentrations described above. The reconstructed skins are cultured up to day 60. Samples are taken at day 30 and day 60 for the different analyses.
as §1

[5] = test system: reconstructed skin (fibroblasts and keratinocytes); assay: Histology, immunohistology and in situ hybridization of reconstructed skins; format: cell-based, human
Excerpt: as §3, §2
A mixture with a base of bovine collagen of type I and III (72%), glycosaminoglycan (8%) cross-linked by chitosan (20%) is poured into 6-well plates. The dermal substrates thus obtained are then frozen at −80° C. and lyophilized. The fibroblasts are inoculated in the dermal substrate, rehydrated and sterilized at a rate of 250,000 cells per cm^2. Keratinocytes are inoculated after 15 days (day 15) at a density of 200,000 to 250,000 cells/cm^2. The reconstructed skins are cultured for 8 days in immersion, in the medium described previously supplemented with 50 μg/ml of vitamin C. […]

For `N#CCCN` [βAPN, β-aminopropionitrile], the “effectiveness against dedifferentiation of the chondrocytes” value ([1]; 50 μg/ml, after 2 weeks of culture) was “total”, the “biochemical dedifferentiation of the chondrocytes (collagen I secreted, stopping of the synthesis of collagen X)” value ([1]; 50 μg/ml, cranial chondrocytes, in the presence of serum, 2 weeks, 2D on plastic) was “totally inhibited” and the “expression of collagen X by the hypertrophic (cranial) chondrocytes” value ([1]; after 3 days of culture, in the presence of serum, media and cell lawns) was “allows the normal expression of collagen X”. The “toxicity for the cells” value [2] was “not toxic”, the “proliferation of the fibroblasts” value ([3]; 200 μg/ml) was “slightly increased” and the “effect on the viability and the multiplication” value ([3]; 200 μg/ml, isolated cultures) was “little effect”. The “reduction of the number of cells compared to the control” value ([3]; 600 μg/ml) was “approximately 50%”, the “concentration with inhibiting effect on proliferation” value ([3]; cell count and MTT) was “greater than 500 μg/ml” and the “toxic effect on cells at confluence” value ([3]; up to 800 μg/ml) was “no toxic effect”. For the same molecule, the “surface area compared to the initial original surface area” value ([4]; 50 μg/ml) was 50%, the “surface area compared to the non-treated control” value ([4]; 50 μg/ml, after two weeks at the air-liquid interface) was “do not show any significant difference” and the “surface area compared to the initial original surface area” value ([4]; 200 μg/ml) was 40%. For the same molecule, the “surface area compared to the initial original surface area” value ([4]; 500 μg/ml) was 40%, the “reduction in surface area compared to original state” value ([4]; 500 μg/ml, immersed, before raising to the air-liquid interface) was 17% and the “surface area compared to that of the control” value ([4]; 200 or 500 μg/ml, after two weeks at the air-liquid interface) was “significantly greater surface area”. The “retraction compared to the control” value ([4]; skins still in immersed culture) was “significant dose-dependent reduction”, the “histology of the reconstructed skins” value ([5]; 50 μg/ml or 200 μg/ml) was “does not seem to be fundamentally changed” and the “detection of the LOX and LOXL genes by in situ hybridization” value ([5]; 50 μg/ml, dermis and epidermis) was “slight increase”. For the same molecule, the “synthesis of extracellular matrix / colonization of the sponge by the fibroblasts” value ([5]; dermis of reconstructed skin) was “increased synthesis of ECM”.

Source: US20040248871A1, “Use of lysyl oxidase inhibitors for cell culture and tissue engineering” (priority 2001, published 2004)
